Test results: patent US8957093B2, “N-biphenylmethylindole modulators of PPARG” (The Scripps Research Institute, priority 2011, dated 2015)
pEC50: −log10 of the molar value. Where two headings read alike, the source gives them in different places.

What was measured:
[1] = system: PPARG (murine PPARg2 or full-length human PPARG, 3xPPRE-luciferase reporter); experiment: Cell-based PPRE-luciferase transactivation assay in COS-1 cells; conditions: for % transactivation (PPRE): PPRE transactivation data, at 10 μM; for EC50: read-out: EC50 (nM) PPRE
Procedure: (§1) Cell-Based Transactivation Assay:
(§2) PPRE is a DNA that contains a binding site for PPARG; thus PPRE is a PPAR response element, used herein as a promoter reporter. The binding site is a DR1 response element with the sequence AGGTCA repeated 3 times in tandem and then fused to a construct for luciferase.
(§3) Thus, PPRE is the basis of the cell based transactivation assay described below. The plasmid DNA is co-transfected along with a plasmid for PPARG into COS-1 cells. After an overnight incubation, cells are treated with DMSO or compounds.
(§4) Confluent COS-1 cells were transfected with 4.5 μg murine PPARg2-pSV Sport or full-length human PPAR9-pSport6, 4.5 μg 3×PPRE-luciferase reporter and 27 μL X-treme Gene 9 transfection reagent in serum-free opti-mem media (Gibco), followed by overnight incubation at 37° C., 5% CO2. Transfected cells were plated in white Perkin Elmer 384-well plates and incubated 4 hours. […] After 18 hour incubation, treated cells were developed with Brite Lite Plus (Perkin Elmer) and read in 384-well Luminescence Perkin Elmer EnVision Multilabel plate reader. Graphs were plotted in triplicate in GraphPad Prism Software as fold change of treated cells over DMSO control cells.

[2] = target: PPARG (murine PPARg2 or full-length human PPARG, 3xPPRE-luciferase reporter) (Homo sapiens, UniProt P37231); experiment: as above
Sequence of PPARG (murine PPARg2 or full-length human PPARG, 3xPPRE-luciferase reporter) (Homo sapiens, UniProt P37231) (P37231 whole entry, looked up): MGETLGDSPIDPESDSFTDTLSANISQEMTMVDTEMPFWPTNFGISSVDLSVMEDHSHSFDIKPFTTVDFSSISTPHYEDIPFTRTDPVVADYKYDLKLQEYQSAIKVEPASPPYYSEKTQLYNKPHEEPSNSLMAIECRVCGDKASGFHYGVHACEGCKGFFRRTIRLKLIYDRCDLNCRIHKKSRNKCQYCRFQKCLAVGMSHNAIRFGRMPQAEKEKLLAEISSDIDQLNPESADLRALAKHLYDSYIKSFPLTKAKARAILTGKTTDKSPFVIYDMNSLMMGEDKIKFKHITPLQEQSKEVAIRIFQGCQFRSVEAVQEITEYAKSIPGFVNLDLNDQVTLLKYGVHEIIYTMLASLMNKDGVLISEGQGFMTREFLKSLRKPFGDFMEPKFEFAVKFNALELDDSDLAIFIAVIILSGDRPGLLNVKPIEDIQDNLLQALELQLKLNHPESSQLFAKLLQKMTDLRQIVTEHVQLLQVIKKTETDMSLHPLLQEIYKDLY
Procedure: as §1, §2, §3, §4

GST-PPARG-LBD = GST-PPARG-LBD (Homo sapiens (Human), UniProt P37231); experiment: Lanthascreen PPARG competitive binding assay (Invitrogen, TR-FRET); conditions: NA = not active, inc = incomplete curve, read-out: IC50 (nM) Lantha
Sequence of GST-PPARG-LBD (P37231 238-503): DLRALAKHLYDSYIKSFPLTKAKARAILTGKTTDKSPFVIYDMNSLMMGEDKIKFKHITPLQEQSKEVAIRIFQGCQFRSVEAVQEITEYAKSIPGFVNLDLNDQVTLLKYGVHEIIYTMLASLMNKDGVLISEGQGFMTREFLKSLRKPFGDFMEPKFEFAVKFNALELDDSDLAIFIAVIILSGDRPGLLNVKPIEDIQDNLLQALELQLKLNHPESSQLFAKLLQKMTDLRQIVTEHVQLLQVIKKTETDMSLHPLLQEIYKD
In short: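 Values are fold change in 520 nm/490 nm FRET ratio relative to a 2% DMSO no-ligand control, excitation 340 nm. Compound dilutions starting at 10 μM competed against 5 nM Fluormone Pan-PPAR Green for GST-PPARG-LBD bound by 5 nM Tb anti-GST antibody. Incubation 2 h in the dark in assay buffer C, triplicate wells.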

RAW264.7 cells = experiment: Inflammatory cytokine production in LPS stimulated RAW264.7 cells; format: cell-based
pre-adipose cell lines = experiment: Fat cell differentiation (Oil Red O staining, adipogenic gene expression); format: cell-based
MC3T3-E1 cells = experiment: Mineralization of osteoblastic cells (Alizarin red S staining, osteoblast gene expression); format: cell-based, mouse
Excerpt: Moreover, the expression of genes involved in the differentiation of these cells was impaired (alkaline phosphatase, RANKL, type I collagen).

[3] = target: Rb protein (cdk5 substrate) (Homo sapiens (Human), UniProt Q00535); experiment: cdk5 phosphorylation of Rb protein in vitro (Western blot); format: biochemical
Excerpt: In order to develop a suitable ligand, we optimized compounds for (i) high binding affinity for PPARG, (ii) blocking the cdk5-mediated PPARG phosphorylation and (iii) lacking classical agonism. Classical agonism is defined here, as is standard in the nuclear receptor field, as an increased level of transcription through a tandem PPAR response element luciferase reporter (PPRE::Luc).

ob/ob mouse = experiment: Leptin-deficient ob/ob mouse model; conditions: ob/ob mice
Procedure: A more severe model of obesity is the leptin-deficient ob/ob mouse. These animals are very obese and insulin-resistant, with substantial compensatory hyperinsulinemia. […] Functional analyses were performed at days 5 and 11 after the start of treatments.
Longer treatments with these drugs allowed an assessment of certain side effects.

[4] = Lanthascreen competitive binding
[5] = PPRE-luciferase, COS-1 cells, NA = not active

Structure (SMILES): Cc1c(C)n(Cc2ccc(-c3ccccc3C(=O)O)cc2)c2ccc(C(=O)N[C@H]3COc4ccccc4C3)cc12 [Example 249, (R)-4′-((5-(chroman-3-ylcarbamoyl)-2,3-dimethyl-1H-indol-1-yl)methyl)-[1,1′-biphenyl]-2-carboxylic acid]
- PPRE transactivation (% in parentheses) ([1]; rosiglitazone = 100%): (1%)
- EC50 ([2]; PPRE-luciferase, COS-1 cells, NA = not active, read-out: EC50 (nM) PPRE): 80 nM
- IC50 (GST-PPARG-LBD; [4]): 22 nM

Structure (SMILES): Cc1c(C)n(Cc2ccc(-c3ccccc3C(=O)O)cc2)c2ccc(C(=O)N[C@@H]3C[C@H]3c3ccccc3)cc12 [Example 294, 4′-((2,3-Dimethyl-5-(((1R,2S)-2-phenylcyclopropyl)carbamoyl)-1H-indol-1-yl)methyl)-[1,1′-biphenyl]-2-carboxylic acid]
- % transactivation (PPRE) [1]: (28%)
- pEC50 ([2]; PPRE transactivation data, read-out: PPRE EC50): 6.29
- IC50 (GST-PPARG-LBD; Lanthascreen PPARG competitive binding): 22 nM

Structure (SMILES): Cc1c(C)n(Cc2ccc(-c3ccccc3C(=O)O)cc2)c2ccc(C(=O)NCc3cccc(OC(F)(F)F)c3)cc12 [compound 5, 4′-((2,3-Dimethyl-5-(3-(trifluoromethoxy)benzylcarbamoyl)-1H-indol-1-yl)methyl)biphenyl-2-carboxylic acid]
- PPRE transactivation (% in parentheses) ([1]; rosiglitazone = 100%): (0%)
- IC50 (GST-PPARG-LBD; [4]): 157 nM

Structure (SMILES): Cc1c(C)n(Cc2ccc(-c3ccccc3C(=O)O)cc2)c2ccc(C(=O)NCc3ccc(I)cc3)cc12 [compound 7, 4′-((5-(4-Iodobenzylcarbamoyl)-2,3-dimethyl-1H-indol-1-yl)methyl)biphenyl-2-carboxylic acid]
- EC50 [1, 5]: 19 nM
- PPRE transactivation (% in parentheses) ([1]; rosiglitazone = 100%): (23%)
- IC50 (GST-PPARG-LBD; [4]): 4 nM

Structure (SMILES): Cc1c(C)n(Cc2ccc(-c3ccccc3C(=O)O)cc2)c2ccc(C(=O)NCc3ccc(C#N)cc3)cc12 [compound 8, 4′-((5-(4-Cyanobenzylcarbamoyl)-2,3-dimethyl-1H-indol-1-yl)methyl)biphenyl-2-carboxylic acid]
- EC50 [1, 5]: 9000 nM
- PPRE transactivation (% in parentheses) ([1]; rosiglitazone = 100%): (12%)
- IC50 (GST-PPARG-LBD; [4]): 34 nM

Structure (SMILES): Cc1c(C)n(Cc2ccc(-c3ccccc3C(=O)O)cc2)c2ccc(C(=O)NCc3ccc(C(C)C)cc3)cc12 [compound 9, 4′-((5-(4-Isopropylbenzylcarbamoyl)-2,3-dimethyl-1H-indol-1-yl)methyl)biphenyl-2-carboxylic acid]
- EC50 [1, 5]: 7 nM
- PPRE transactivation (% in parentheses) ([1]; rosiglitazone = 100%): (18%)
- IC50 (GST-PPARG-LBD; [4]): 23 nM

Structure (SMILES): Cc1c(C)n(Cc2ccc(-c3ccccc3C(=O)O)cc2)c2ccc(C(=O)NCc3ccc(S(C)(=O)=O)cc3)cc12 [compound 10, 4′-((2,3-Dimethyl-5-(4-(methylsulfonyl)benzylcarbamoyl)-1H-indol-1-yl)methyl)biphenyl-2-carboxylic acid]
- PPRE transactivation (% in parentheses) ([1]; rosiglitazone = 100%): (0%)
- IC50 (GST-PPARG-LBD; [4]): 553 nM

Structure (SMILES): Cc1c(C)n(Cc2ccc(-c3ccccc3C(=O)O)cc2)c2ccc(C(=O)NCc3ccc(N(C)C)cc3)cc12 [compound 11, 4′-((5-(4-(Dimethylamino)benzylcarbamoyl)-2,3-dimethyl-1H-indol-1-yl)methyl)biphenyl-2-carboxylic acid]
- EC50 [1, 5]: 154 nM
- PPRE transactivation (% in parentheses) ([1]; rosiglitazone = 100%): (29%)
- IC50 (GST-PPARG-LBD; [4]): 13 nM

Structure (SMILES): Cc1c(C)n(Cc2ccc(-c3ccccc3C(=O)O)cc2)c2ccc(C(=O)NCc3ccc(Cl)cc3)cc12 [compound 14, 4′-((5-(4-Chlorobenzylcarbamoyl)-2,3-dimethyl-1H-indol-1-yl)methyl)biphenyl-2-carboxylic acid]
- EC50 [1, 5]: 70 nM
- PPRE transactivation (% in parentheses) ([1]; rosiglitazone = 100%): (21%)
- IC50 (GST-PPARG-LBD; [4]): 4 nM

Structure (SMILES): COC(=O)c1ccc(CNC(=O)c2ccc3c(c2)c(C)c(C)n3Cc2ccc(-c3ccccc3C(=O)O)cc2)cc1 [compound 16, 4′-((5-(4-(Methoxycarbonyl)benzylcarbamoyl)-2,3-dimethyl-1H-indol-1-yl)methyl)biphenyl-2-carboxylic acid]
- EC50 [1, 5]: 59 nM
- PPRE transactivation (% in parentheses) ([1]; rosiglitazone = 100%): (23%)
- IC50 (GST-PPARG-LBD; [4]): 2 nM

Structure (SMILES): Cc1c(C)n(Cc2ccc(-c3ccccc3C(=O)O)cc2)c2ccc(C(=O)NCc3ccc(S(N)(=O)=O)cc3)cc12 [compound 17, 4′-((2,3-Dimethyl-5-(4-sulfamoylbenzylcarbamoyl)-1H-indol-1-yl)methyl)biphenyl-2-carboxylic acid]
- PPRE transactivation (% in parentheses) ([1]; rosiglitazone = 100%): (0%)
- IC50 (GST-PPARG-LBD; [4]): 300 nM

Structure (SMILES): COc1ccc(CNC(=O)c2ccc3c(c2)c(C)c(C)n3Cc2ccc(-c3ccccc3C(=O)O)cc2)c(OC)c1 [compound 20, 4′-((5-(2,4-Dimethoxybenzylcarbamoyl)-2,3-dimethyl-1H-indol-1-yl)methyl)biphenyl-2-carboxylic acid]
- PPRE transactivation (% in parentheses) ([1]; rosiglitazone = 100%): (0%)
- IC50 (GST-PPARG-LBD; [4]): 16 nM

Structure (SMILES): COc1cccc([C@H](C)NC(=O)c2ccc3c(c2)c(C)c(C)n3Cc2ccc(-c3ccccc3C(=O)O)cc2)c1 [compound 21, (S)-4′-((5-(1-(3-Methoxyphenyl)ethylcarbamoyl)-2,3-dimethyl-1H-indol-1-yl)methyl)biphenyl-2-carboxylic acid]
- EC50 [1, 5]: 46 nM
- PPRE transactivation (% in parentheses) ([1]; rosiglitazone = 100%): (12%)
- IC50 (GST-PPARG-LBD; [4]): 13 nM

Structure (SMILES): COc1ccc(CNC(=O)c2ccc3c(c2)c(C)c(C)n3Cc2ccc(-c3ccccc3C(=O)O)cc2)cc1OC [compound 24, 4′-((5-(3,4-Dimethoxybenzylcarbamoyl)-2,3-dimethyl-1H-indol-1-yl)methyl)biphenyl-2-carboxylic acid]
- PPRE transactivation (% in parentheses) ([1]; rosiglitazone = 100%): (0%)
- IC50 (GST-PPARG-LBD; [4]): 125 nM

Structure (SMILES): Cc1c(C)n(Cc2ccc(-c3ccccc3C(=O)O)cc2)c2ccc(C(=O)NC(C)(C)c3ccccc3)cc12 [compound 25, 4′-((2,3-Dimethyl-5-((2-phenylpropan-2-yl)carbamoyl)-1H-indol-1-yl)methyl)-[1,1′-biphenyl]-2-carboxylic acid]
- EC50 [1, 5]: 2.5 nM
- PPRE transactivation (% in parentheses) ([1]; rosiglitazone = 100%): (15%)
- IC50 (GST-PPARG-LBD; [4]): 0.5 nM

Structure (SMILES): Cc1c(C)n(Cc2ccc(-c3ccccc3C(=O)O)cc2)c2ccc(C(=O)N[C@@H](C)c3ccc(Cl)cc3)cc12 [compound 27, (S)-4′-((5-((1-(4-Chlorophenyl)ethyl)carbamoyl)-2,3-dimethyl-1H-indol-1-yl)methyl)-[1,1′-biphenyl]-2-carboxylic acid]
- EC50 [1, 5]: 33 nM
- PPRE transactivation (% in parentheses) ([1]; rosiglitazone = 100%): (6%)
- IC50 (GST-PPARG-LBD; [4]): 53 nM

Structure (SMILES): Cc1c(C)n(Cc2ccc(-c3ccccc3C(=O)O)cc2)c2ccc(C(=O)N[C@@H](C)c3cccc(Br)c3)cc12 [compound 30, (S)-4′-((5-((1-(3-Bromophenyl)ethyl)carbamoyl)-2,3-dimethyl-1H-indol-1-yl)methyl)-[1,1′-biphenyl]-2-carboxylic acid]
- PPRE transactivation (% in parentheses) [1]: (18%)
- EC50 [1]: 20 nM
- IC50 (GST-PPARG-LBD; [4]): 58 nM

Structure (SMILES): CN(CCOc1ccc(CC2SC(=O)NC2=O)cc1)c1ccccn1 (stereo not shown) [rosiglitazone, reference compound]
- production of inflammatory cytokines (RAW264.7 cells): inhibition of production of inflammatory cytokines
- fat cell differentiation / lipid accumulation (pre-adipose cell lines; Oil Red O staining): potently stimulated fat cell differentiation
- expression of aP2, C/EBPα and Glut4 (pre-adipose cell lines; genes linked to adipogenesis): increased expression
- expression of osteoblast differentiation genes (alkaline phosphatase, RANKL, type I collagen) (MC3T3-E1 cells): impaired
- mineralization (calcification) (MC3T3-E1 cells; Alizarin red S staining): reduced the mineralization
- effect on cdk5 phosphorylation of the Rb protein [3]: no effect
- glucose tolerance test (ob/ob mouse): markedly improved
- insulin levels (ob/ob mouse; after five days of treatment): substantially reduced
- fasting glucose levels (ob/ob mouse; after five days of treatment, vehicle 110±13): 88 ± 13 mg/dL
- body fat / adiposity by MRI (ob/ob mouse; longer treatment): increase in body fat
- hematocrit (fluid retention) (ob/ob mouse; longer treatment): characteristic decrease
- body weight (ob/ob mouse; longer treatment (11 days)): increase in body weight
